Earlier results as cited in patent US7790164B2, “Fragments of antibodies to epidermal growth factor receptor and methods of their use” (Van Andel Research Institute, priority 2007, dated 2010).

System: A431 cells
Conditions: Ojima et al. J Med Chem 2002, read-out: IC50 of A431 to paclitaxel; cited from earlier work

SMILES: CC(=O)O[C@H]1C(=O)[C@@]2(C)[C@H]([C@H](OC(=O)c3ccccc3)[C@]3(O)C[C@H](OC(=O)[C@H](O)[C@@H](NC(=O)c4ccccc4)c4ccccc4)C(C)=C1C3(C)C)[C@]1(OC(C)=O)CO[C@@H]1C[C@@H]2O [paclitaxel]
- IC50: ~0.09 nM
